Experiment [1] relates to HT-29 (colon adenocarcinoma). Description: MTT cell proliferation assay, HT-29. Type of experiment: cell-based, human. Conditions: for IC50: Homo sapiens, read-out: IC50 HT-29; for SI (HT-29) (IC50HEK293/IC50HT-29): selectivity index. On the procedure:
The 3-(4,5-dimethylthiazol-2-yl)-2,5-diphenyltetrazolium bromide (MTT; Sigma Chemical Co.) dye reduction assay in 96-well microplates was used. […] After that, the supernatant was discarded and replaced by 100 µL of DMSO to dissolve formazan crystals. The absorbance was then read at 550 nm by spectrophotometry. For all concentrations of compound, cell viability was expressed as the percentage of the ratio between the mean absorbance of treated cells and the mean absorbance of untreated cells. Three independent experiments were performed, and the IC50 values (i.e., concentration half inhibiting cell proliferation) were graphically determined using GraphPad Prism 4 software.
A general note: Tetrazolium dyes change colour on reduction, which living cells bring about.

Experiment [2] concerns CD11b. Kind of experiment: CD11b relative quantification by flow cytometry in co-cultured THP-1. Type of experiment: cell-based, human. Conditions: 20 μM; for % CD11b: related to non-treated cells; for reduction of CD11b: excess of cancer cells (2:1). How it is done:
Reducing the expression of CD11b has become a promising target for immune modulation in anti-cancer therapies. For that reason, we decided to study the effect of our compounds on CD11b in THP-1 cells co-cultured with HT-29. We also determine the relative amount of CD80, a common surface marker for monocytes. This study was performed on the collected cell culture from each well and gating living THP-1 cell population.
To study the effect of the compounds on every biological target in co-cultured THP-1 immune cells with cancer cell line HT-29, the compounds were incubated for 24 h/48 h as described before.
To detect membrane CD11b and CD80, after the cell incubation, suspended THP-1 was collected from the cell culture of each sample well, fixed with 4% in PBS paraformaldehyde, and stained with FITC Mouse monoclonal Anti-Human CD80 (Sigma-Aldrich, S. Louis, MO, USA, SAB4700142) and Alexa Fluor® 647 Rabbit monoclonal Anti-CD11b (Merck, S. Louis, MO, USA, #MABF366).

Experiment [3] addresses PD-L1 (Homo sapiens, UniProt Q9NZQ7). Description: PD-L1 relative quantification by flow cytometry in A-549. Type of experiment: cell-based. More on the design: endogenous in cells; host or cells: A-549. Conditions: A-549, 20 µM, 24 h, relative to DMSO control = 100. How it is done:
To assess the effect of the selected compounds on the biological targets PD-L1 and VEFGR-2, we performed the study on both cancer cell lines HT-29 and A-549 and by flow cytometry technique. […] For these assays, cells were incubated for 24 h in the presence of the corresponding compounds at 20 µM concentration.
(§1) To study the effect of the compounds on every biological target in cancer cell lines, the compounds were used at 20 µM dose.
(§2) For the assay, 10^5 cells per well were incubated for 24 h with the corresponding dose of the tested compound in a total volume of 500 μL of their growth media.
On the one hand, to detect total PD-L1 and VEGFR-2, after the cell treatments, they were collected and fixed with 4% in PBS paraformaldehyde. After fixation, a treatment with 0.5% in PBS TritonTM X-100 was performed, and finally, cells were stained with FITC Mouse monoclonal Anti-Human VEGFR-2 (ab184903) and Alexa Fluor® 647 Rabbit monoclonal Anti-PD-L1 (ab215251).
(§3) On the other hand, to detect membrane PD-L1 and VEGFR-2, the process was the same, avoiding the treatment with 0.5% in PBS TritonTM X-100 step.
For orientation: In flow cytometry, cells or beads pass a laser one at a time.

The target of experiment [4] is VEGFR-2 (Homo sapiens, UniProt P35968). Kind of experiment: VEGFR-2 relative quantification by flow cytometry in MCF-7. Type of experiment: cell-based. Also on record: Both membrane and total PD-L1 and VEGFR-2 were relatively determined using DMSO-treated cells as a negative control; endogenous in cells; host or cells: MCF-7. Conditions: MCF-7, 20 µM, 24 h, control = 100. On the procedure:
Then, we determined the effect of the selected compounds on the biological targets, PD-L1 and VEGFR-2, by flow cytometry. […] As usually, the assay was performed at a concentration of 20 µM for 24 h.
as §1, §2
On the one hand, to detect total PD-L1 and VEGFR-2, after the cell treatments, they were collected and fixed with 4% in PBS paraformaldehyde.
as §3

The subject of experiment [5] is Fyn. Kind of experiment: Immunoblotting of OT-1 CTL signaling proteins: FYN. Type of experiment: cell-based, mice. Conditions: OT-1, 20 μM, 24 h. An excerpt:
(§4) We next studied the effect of our compounds on the signaling cascade downstream of the TCR. […] However, both the expression and phosphorylation of LCK were increased in response to all compounds. The effects on ZAP70 and LAT were more complex, with opposing effects on total protein expression versus phosphorylation. Thus, all compounds modulated signaling downstream of the TCR in a manner that is likely to impact T-cell activation and activity.
(§5) CD8+ cells were obtained from the inguinal, axillary, brachial, and mesenteric lymph nodes previously collected from OT-1 mice. Lymph node cells were isolated by mashing through a […] cell strainer. Cells were resuspended in IMDM cell media at a concentration of 0.3 million cells/mL. N4 ovalbumin peptide was added at a concentration of 10 nM, and cells were incubated for 48 h at 5% CO2, 37 °C. On day 2 from recollection, cells were pelleted at 1300 rpm for 5 min and washed with PBS to remove N4 peptide. The cell pellet was resuspended in fresh IMDM media in a new flask in a 0.3 million cells/mL and supplemented with IL-2 at 20 ng/mL. After incubation for a further 48 h (day 4), cells were re-seeded in fresh IMDM media at a concentration of 0.3 million cells/mL supplemented with IL-2 at 20 ng/mL. Cells were cultured for a further 48 h prior to use on day 6 in functional assays.
(§6) To study the effect of the compounds in the signaling pathway of CTLs, the compound was incubated for 24 h at 20 μM. After this time, cells were collected and washed twice in PBS and lysed in radioimmunoprecipitation assay (RIPA) lysis buffer (50 mM tris-HCl at pH 7.4, 150 mM sodium chloride, 5 mM EGTA, 0.1% SDS, 1% NP-40, and 1% deoxycholate) supplemented with a protease and phosphatase inhibitor cocktail (mini complete ULTRA Protease tablet and phosSTOP tablet from Roche, Basel, Switzerland). Lysates were clarified by high-speed centrifugation (17,000 rpm for 15 min at 4 °C). Protein concentration was measured using a Micro BCA Protein Assay (Thermo Scientific, Waltham, MA, USA), and 10 μg to 30 μg of total protein were supplemented with 2X SDS sample buffer [tris (pH 6.8), 20% glycerol, 5% SDS, b-mercaptoethanol, and bromophenol blue) and boiled at 95 °C for 5 min. […] Bound Ab was detected by incubation with anti-rabbit and anti-mouse horseradish peroxidase secondary Ab (Cell Signaling Technology) and visualized using the Bio-Rad ChemiDoc MP Imaging System.
Background: Immunoblotting shows a protein as a band on a membrane.

Experiment [6] deals with ZAP70. Description: Immunoblotting of OT-1 CTL signaling proteins: ZAP70. Type of experiment: cell-based, mice. The following applies: OT-1, 20 μM, 24 h.
Text: as §4, §5, §6

Where [7] appears, read: membrane THP-1, 1:5 HT-29/THP-1, 24 h.
Where [8] appears, read: membrane THP-1, 2:1 HT-29/THP-1, 48 h.

Where two headings read alike, the source gives them in different places.

We go through five compounds from PMC10218498, “Exploring BenzylethoxyAryl Urea Scaffolds for Multitarget Immunomodulation Therapies” (International Journal of Molecular Sciences, 2023).

VEGFR-2, sequence (P35968 20-1356): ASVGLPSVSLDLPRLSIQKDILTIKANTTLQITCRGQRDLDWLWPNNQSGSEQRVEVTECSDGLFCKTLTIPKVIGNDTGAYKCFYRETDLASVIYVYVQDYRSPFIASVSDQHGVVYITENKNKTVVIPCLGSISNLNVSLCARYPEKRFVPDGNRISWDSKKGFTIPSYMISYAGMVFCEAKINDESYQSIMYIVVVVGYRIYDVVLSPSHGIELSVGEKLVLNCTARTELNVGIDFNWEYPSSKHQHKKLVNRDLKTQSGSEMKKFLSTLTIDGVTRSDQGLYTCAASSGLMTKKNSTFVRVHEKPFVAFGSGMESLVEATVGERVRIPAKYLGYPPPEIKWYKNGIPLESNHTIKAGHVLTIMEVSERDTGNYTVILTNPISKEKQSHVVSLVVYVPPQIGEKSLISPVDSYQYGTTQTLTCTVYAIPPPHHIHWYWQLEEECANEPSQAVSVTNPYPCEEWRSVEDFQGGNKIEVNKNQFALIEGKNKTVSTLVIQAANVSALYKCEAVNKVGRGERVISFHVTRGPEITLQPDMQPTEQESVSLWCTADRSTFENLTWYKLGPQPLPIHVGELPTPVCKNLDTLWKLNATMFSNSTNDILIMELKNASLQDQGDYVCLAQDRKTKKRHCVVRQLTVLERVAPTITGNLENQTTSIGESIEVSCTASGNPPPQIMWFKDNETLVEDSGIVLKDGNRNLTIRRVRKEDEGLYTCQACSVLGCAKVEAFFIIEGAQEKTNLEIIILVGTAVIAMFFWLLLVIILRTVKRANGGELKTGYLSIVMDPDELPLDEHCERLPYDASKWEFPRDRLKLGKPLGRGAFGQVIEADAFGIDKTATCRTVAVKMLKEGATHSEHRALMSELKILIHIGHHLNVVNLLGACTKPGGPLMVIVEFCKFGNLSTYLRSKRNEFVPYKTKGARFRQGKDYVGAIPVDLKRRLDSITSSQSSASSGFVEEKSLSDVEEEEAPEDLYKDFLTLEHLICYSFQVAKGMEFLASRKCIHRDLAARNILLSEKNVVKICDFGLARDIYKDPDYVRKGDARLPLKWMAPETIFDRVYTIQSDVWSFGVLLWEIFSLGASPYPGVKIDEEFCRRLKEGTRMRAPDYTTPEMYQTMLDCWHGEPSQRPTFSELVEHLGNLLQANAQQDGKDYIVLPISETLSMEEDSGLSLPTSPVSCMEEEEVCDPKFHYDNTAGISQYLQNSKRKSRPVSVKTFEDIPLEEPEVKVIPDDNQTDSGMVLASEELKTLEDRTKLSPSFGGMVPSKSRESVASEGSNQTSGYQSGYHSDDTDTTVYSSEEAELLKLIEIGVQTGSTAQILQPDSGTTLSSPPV
PD-L1, sequence (Q9NZQ7 19-290): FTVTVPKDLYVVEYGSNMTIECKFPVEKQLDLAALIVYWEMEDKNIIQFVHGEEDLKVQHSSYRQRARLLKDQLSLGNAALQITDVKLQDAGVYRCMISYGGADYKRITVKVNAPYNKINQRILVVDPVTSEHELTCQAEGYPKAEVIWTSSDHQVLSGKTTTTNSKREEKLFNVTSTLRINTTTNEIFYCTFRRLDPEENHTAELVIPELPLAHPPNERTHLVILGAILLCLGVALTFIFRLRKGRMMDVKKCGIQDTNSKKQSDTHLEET

Turning to `Cc1c(COc2ccc(CN3CCCCC3C(=O)O)cc2Br)cccc1-c1ccccc1` (stereo not shown) [BMS-8, reference compound], the IC50 in experiment [1] (HT-29, MTT, 48 h of treatment) was 19 ± 2 µM. Further, the “SI (HT-29) (IC50HEK293/IC50HT-29)” value in experiment [1] is 3. The “% CD11b” value in experiment [2] (setting [7]) was 91 ± 1%. Further, the “% CD11b” value in experiment [2] (setting [8]) is on record as 80 ± 2%. Further, the “Total PD-L1 (%)” value in experiment [3] was 96 ± 29%. Moreover, in experiment [4], the “% VEGFR-2 Memb.” value was found to be 107 ± 4% and the “% VEGFR-2 Total” value was found to be 93%.

For `COc1ccc(COc2cccc(NC(=O)Nc3ccc(F)cc3)c2)cc1` [Compound 2], the IC50 in experiment [1] (HT-29, MTT, 48 h of treatment) was 5.5 ± 1.2 µM. In experiment [1], the “SI (HT-29) (IC50HEK293/IC50HT-29)” value is reported as greater than 18. Further, the “reduction of CD11b” value in experiment [2] (48 h) is reported as “about 20%”. Further, in experiment [2] (setting [7]), the “% CD11b” value is reported as 92 ± 9%. Also, the “% CD11b” value in experiment [2] (setting [8]) was 86 ± 3%. For the same compound, in experiment [5], the “FYN protein expression (Western blot quantification)” value (“FYN protein expression” below) worked out at 101. Besides, in experiment [6], the “ZAP-70 protein expression (Western blot quantification)” value was found to be 34 and the “pZAP-70 protein expression (Western blot quantification)” value (from here on “pZAP-70 protein expression”) stood at 88. The “Total PD-L1 (%)” value in experiment [3] was 107 ± 13%. Further, in experiment [4], the “% VEGFR-2 Memb.” value was determined as 91 ± 12% and the “% VEGFR-2 Total” value turned out to be 72 ± 10%.

In the case of `COc1ccc(COc2cccc(NC(=O)Nc3ccc(Br)cc3)c2)cc1` [Compound 8], in experiment [1] (HT-29, MTT, 48 h of treatment), the 50% inhibitory concentration (IC50) worked out at 11 ± 1 µM. For the same compound, the “SI (HT-29) (IC50HEK293/IC50HT-29)” value in experiment [1] is reported as greater than 9. Besides, the “% CD11b” value in experiment [2] (setting [7]) amounted to 91 ± 4%. The “% CD11b” value in experiment [2] (setting [8]) is 93 ± 25%. In addition, in experiment [6], the “ZAP-70 protein expression (Western blot quantification)” value was 37 and the “pZAP-70 protein expression” value was 74. Also, the “Total PD-L1 (%)” value in experiment [3] stood at 80 ± 7%. For the same compound, in experiment [4], the “% VEGFR-2 Memb.” value is recorded as 82 ± 6% and the “% VEGFR-2 Total” value is 88 ± 11%.

Consider `COc1ccc(COc2cccc(NC(=O)Nc3ccc(OC)cc3)c2)cc1` [Compound 11], for which, in experiment [1] (HT-29, MTT, 48 h of treatment), the IC50 was found to be 2 ± 1.2 µM. Further, in experiment [1], the “SI (HT-29) (IC50HEK293/IC50HT-29)” value is listed as greater than 50. Further, the “reduction of CD11b” value in experiment [2] (48 h) is “about 20%”. The “% CD11b” value in experiment [2] (setting [7]) was found to be 95 ± 6%. The “% CD11b” value in experiment [2] (setting [8]) came to 83 ± 5%. Moreover, the “FYN protein expression” value in experiment [5] worked out at 109. In experiment [6], the “ZAP-70 protein expression (Western blot quantification)” value is 38 and the “pZAP-70 protein expression” value amounted to 77. The “Total PD-L1 (%)” value in experiment [3] was 135 ± 18%. In experiment [4], the “% VEGFR-2 Memb.” value was found to be 81 ± 11% and the “% VEGFR-2 Total” value is 83 ± 21%.

`COc1ccc(COc2cccc(NC(=O)Oc3ccccc3)c2)cc1` [Compound 14]: the IC50 in experiment [1] (HT-29, 48 h) came to 6.8 ± 0.5 µM. For the same compound, the “SI (HT-29) (IC50HEK293/IC50HT-29)” value in experiment [1] is given as greater than 15. Besides, the “reduction of CD11b” value in experiment [2] (48 h) was “about 20%”. Further, the “% CD11b” value in experiment [2] (setting [7]) was 78 ± 11%. The “% CD11b” value in experiment [2] (setting [8]) is 81 ± 8%. For the same compound, in experiment [5], the “FYN protein expression” value turned out to be 102. In experiment [6], the “ZAP-70 protein expression (Western blot quantification)” value is on record as 54 and the “pZAP-70 protein expression” value is listed as 108. In experiment [3], the “Total PD-L1 (%)” value came out at 141 ± 1%. In experiment [4], the “% VEGFR-2 Memb.” value worked out at 89 ± 11% and the “% VEGFR-2 Total” value is on record as 110 ± 12%.

The term IC50 denotes the concentration at which inhibition is half-maximal.
